Measured values: patent publication US20250002467A1, “DESIGN, SYNTHESIS AND MECHANISMS OF ANTICANCER ACTIVITY OF NEW ACETYLATED 5-AMINOSALICYLATE-THIAZOLINONE HYBRID DERIVATIVES” (University of Sharjah, priority 2023, published 2025)

Tests used:
Assay type in all cases: cell-based
A549 cells = test: Transcriptomic analysis of HH33-treated A549 cells
Description: RNA extraction was carried out followed by cDNA synthesis using SuperScript VILO cDNA Synthesis kit (Invitrogen, Waltham, MA, USA) and amplification using Ion AmpliSeq gene expression core panel primers. The prepared library was purified using Agencourt AMPure XP beads (Beckman Coulter, California, USA) and quantified using Ion Library TaqMan™ Quantitation Kit (Applied Biosystems, Waltham, MA, USA). The libraries were further diluted to […] and pooled equally with four individual samples per pool. The pooled libraries were amplified using emulsion PCR on Ion OneTouch™ 2 instrument (OT2) and the enrichment was performed on Ion OneTouch™ ES following the manufacturer's instruction. Thus, prepared template libraries were then sequenced with Ion S5 XL Semiconductor sequencer using the Ion 540™ Chip. RNA-seq data were analyzed using Ion Torrent Software Suite version 5.4 and the alignment was carried out using modifications of the Torrent Mapping Alignment Program (TMAP) optimizing it for aligning the raw sequencing reads against reference sequence derived from hgl9 (GRCh37) assembly. The specificity and sensitivity was maintained by implementing a two-stage mapping approach by employing BWA-short, BWA-long, SSAHA [31], Super-maximal Exact Matching and Smith Waterman algorithm for optimal mapping. Raw read counts of the targeted genes were performed using Samtools (Samtools view —c -F 4-L bed_file bam_file) and the number of expressed transcripts was confirmed after Fragments Per Kilobase Million (FPKM) normalisation. Differentially expressed gene (DEG) analysis was performed using a script written in R programming language (version 3.6.3) with function calls to DESeq2 package from Bioconductor library sets. Raw read counts from RNASeq were normalized using quantile normalization. All counts ranked “0” were excluded. Differentially expressed genes between the two set of cell lines [HH33-treated (n=3), and untreated (n=3)] were assessed using 2 tailed t-test. Differentially expressed genes with p-value of <0.05, adjusted p-value<0.8 and 5-fold difference were included for pathway analysis using Metascape.

HCT116 = test: Cell cycle analysis by flow cytometry, HCT116; settings: 1 μM, peak at 8 hours, Control 27.4%
Description: (§1) The effect of the HH32 and HH33 compounds on the distribution of cell cycle at different time points (2, 4, 8, 24, 48, and 72 hours) was analyzed using flow cytometry. Briefly, the cells were harvested and fixed in 70% ethanol for 24 hours at −20° C. The fixed cells were treated with RNAase […] (Sigma Aldrich, Missouri, USA) and stained with propidium iodide […] (Sigma Aldrich, Missouri, USA). The data were acquired using BD Accuri C6 flow cytometer (Becton Dickenson, San Jose, CA, USA) and analysis was done using Flow Jo software (Tree Star, Inc, Ashland, OR, USA).

MCF7 = test: Cell cycle analysis by flow cytometry, MCF7; settings: 1 μM, up to 72 hours, Control 11.3%
Description: as §1

A549 = test: Cell cycle analysis by flow cytometry, A549; settings: 1 μM, up to 72 hours, Control 8.5%
Description: as §1

[1] = test system: CDK4 knockout HCT116 cells; test: Sensitivity and cell cycle of CDK4 knockout versus wild-type HCT116
Description: CRISPR-Cas9 was employed to stablish HCT116 CDK4 KO cells. Ribonucleotide protein (RNP) delivery system for CRISPR technique was utilized. All the reagents were purchased for Thermoscientific company, USA. gRNA was used to target CDK4 genes. Lipofectamine™ CRISPRMAX™ Cas9 Transfection Reagent was used to transfect the cells with the gRNA and Cas9. The genomic cleavage efficiency was assessed by immunoblotting, while a scrambled gRNA, Trueguide gRNA Negative control, was used as a negative control in all the steps to ensure the specificity of the target. […] To generate isolated clones with complete knockout, the mixed pool of cells was diluted 1 cell/[…] liquid medium and then dispersed into 96 wells plate. The individual cells were left to form clones. […]
The cytotoxic effects of HH32 and HH33 compounds were evaluated at various concentrations ranging from 0.0001 to 100 μM by sulphrhodamine-B (SRB) assay as described previously. The anti-proliferative activity was expressed as growth inhibitory concentration (IC50) values, which were calculated by the sigmoidal dose-response curve fitting method using Graph pad prism 6 software (GraphPad Software, San Diego, CA, USA).
The effect of the HH32 and HH33 compounds on the distribution of cell cycle at different time points (2, 4, 8, 24, 48, and 72 hours) was analyzed using flow cytometry. […]

MCF7 cells = test: Transcriptomic analysis of HH33-treated MCF7 cells; settings: confirmed by quantitative RT-PCR
[2] = A549, H33-treated vs DMSO-treated, DNA repair pathways
[3] = H33-treated A549 cells/DMSO-treated A549 cells, Apoptosis
[4] = H33-treated A549 cells/DMSO-treated A549 cells, Cell Cycle
[5] = H33-treated A549 cells/DMSO-treated A549 cells, Transcriptional Regulation by TP53

## COC(=O)c1cc(NC2=NC(=O)C(=Cc3ccc(N(C)C)cc3)S2)ccc1OC(C)=O [HH33, Methyl 2-acetoxy-5-[(5-(4-dimethylaminobenzylidene)-4 (H)-oxo-1,3-thiazol-2-yl)-amino]benzoate]
A549 cells; A549, H33-treated vs DMSO-treated, DNA repair / cell cycle
  Fold change (H_Mean/D_Mean) CLSPN: 0.01798
A549 cells; A549, H33-treated vs DMSO-treated, DNA repair / cell cycle / TP53 regulation
  Fold change (H_Mean/D_Mean) BARD1: 0.0451
A549 cells; [2]
  Fold change (H_Mean/D_Mean) ACTR8: 0.01139
  Fold change (H_Mean/D_Mean) CHEK2: 0.05943
  Fold change (H_Mean/D_Mean) EYA3: 0.02596
A549 cells; A549, confirmed by quantitative RT-PCR
  six shared genes (ATAD2, CDCA3, FAMIIIB, CDKN3, HISTIH2AH, MIS18BP1): maximally downregulated
A549 cells; A549, hypergeometric test
  apoptotic signaling pathway: upregulation
  cell cycle progression pathway: down-regulation
A549 cells; [3]
  Fold change BECN1: 186.7500
  Fold change CRIP1: 199.5714
  Fold change TGFB1: 100.8000
  Fold change TNFRSF10C: 802.5000
  Fold change YWHAH: 168.8804
A549 cells; [4]
  Fold change CDC14A: 0.01425
  Fold change CEP78: 0.01614
  Fold change ODF2: 0.005902
A549 cells; [5]
  Fold change CCNE1: 0.02093
  Fold change CDK9: 0.02262
  Fold change COX16: 0.04666
  Fold change CSNK2A2: 0.05877
HCT116
  G2/M phase accumulation: 77.4%
MCF7
  G2/M cell cycle arrest: 57.7%
A549
  G2/M cell cycle arrest: 45.1%
[1]
  sensitivity and cell cycle distribution, wild-type versus CDK4 knockout cells: no difference
MCF7 cells
  six shared genes (ATAD2, CDCA3, FAMIIIB, CDKN3, HISTIH2AH, MIS18BP1): maximally downregulated
